Data published in ChEMBL document CHEMBL1139487, “Discovery of corticotropin releasing factor 2 receptor selective sauvagine analogues for treatment of skeletal muscle atrophy” (J Med Chem, 2005).
pEC50: −log10 of the molar value. Square brackets hold non-standard residues; d marks the D form. Peptide text beside a SMILES is read from it. pGlu = O=C1CC[C@@H](C(=O)O)N1

Assays:
[1] = molecular target: Corticotropin-releasing factor receptor 2 (Mus musculus, UniProt Q60748); assay: In vitro effective concentration for mouse corticotropin releasing factor 2 receptor
[2] = molecular target: T1, Corticotropin-releasing factor receptor 1 (Mus musculus, UniProt P35347); assay: In vitro effective concentration for mouse corticotropin releasing factor 1 receptor
T1 sequence (P35347 whole entry): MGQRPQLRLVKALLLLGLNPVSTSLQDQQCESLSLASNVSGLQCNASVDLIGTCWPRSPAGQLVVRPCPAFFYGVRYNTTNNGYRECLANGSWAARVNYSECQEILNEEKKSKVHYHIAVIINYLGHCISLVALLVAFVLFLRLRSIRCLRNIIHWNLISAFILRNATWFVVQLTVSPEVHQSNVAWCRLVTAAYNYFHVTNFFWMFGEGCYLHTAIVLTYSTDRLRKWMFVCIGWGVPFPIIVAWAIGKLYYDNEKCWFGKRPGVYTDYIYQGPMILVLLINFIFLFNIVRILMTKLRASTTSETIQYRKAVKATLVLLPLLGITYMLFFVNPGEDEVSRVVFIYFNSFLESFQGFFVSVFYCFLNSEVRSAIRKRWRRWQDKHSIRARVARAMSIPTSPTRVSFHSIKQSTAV

Sequence of Corticotropin-releasing factor receptor 2 (Q60748 whole entry): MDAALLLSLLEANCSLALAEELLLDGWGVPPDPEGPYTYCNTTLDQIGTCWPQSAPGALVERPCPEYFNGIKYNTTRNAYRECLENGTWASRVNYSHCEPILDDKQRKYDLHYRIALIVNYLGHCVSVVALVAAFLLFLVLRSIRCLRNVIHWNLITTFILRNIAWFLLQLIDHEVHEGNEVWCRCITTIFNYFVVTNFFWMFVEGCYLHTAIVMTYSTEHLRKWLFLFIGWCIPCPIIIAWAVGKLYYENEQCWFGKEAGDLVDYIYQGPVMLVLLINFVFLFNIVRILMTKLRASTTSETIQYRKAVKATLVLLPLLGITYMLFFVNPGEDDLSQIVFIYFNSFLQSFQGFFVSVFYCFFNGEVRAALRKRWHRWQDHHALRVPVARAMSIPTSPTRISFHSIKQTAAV

Row | SMILES | pEC50 [1] | pEC50 [2]
1 | CC[C@H](C)[C@H](NC(=O)[C@@H](NC(=O)[C@H](CC(=O)O)NC(=O)[C@H](CC(C)C)NC(=O)[C@H](CC(C)C)NC(=O)[C@H](CC(C)C)NC(=O)[C@H](CCCNC(=N)N)NC(=O)[C@H](CC(N)=O)NC(=O)[C@H](CC(N)=O)NC(=O)[C@H](C)NC(=O)[C@H](C)NC(=O)[C@H](CCC(N)=O)NC(=O)[C@H](CCC(N)=O)NC(=O)[C@H](CCCCN)NC(=O)[C@H](CCC(=O)O)NC(=O)[C@H](CCCCN)NC(=O)[C@H](CCC(=O)O)NC(=O)[C@H](CCC(N)=O)NC(=O)[C@H](CCCCN)NC(=O)[C@H](CCC(=O)O)NC(=O)[C@@H](NC(=O)[C@H](CCC(=O)O)NC(=O)[C@@H](NC(=O)[C@H](CCSC)NC(=O)[C@H](CCCCN)NC(=O)[C@H](CCCNC(=N)N)NC(=O)[C@H](CC(C)C)NC(=O)[C@H](CC(C)C)NC(=O)[C@H](CC(C)C)NC(=O)[C@@H](NC(=O)[C@@H]1CCCN1C(=O)[C@H](CC(C)C)NC(=O)[C@H](CC(=O)O)NC(=O)[C@@H](NC(=O)[C@H](CO)NC(=O)[C@@H](NC(=O)[C@@H]1CCCN1C(=O)[C@@H]1CCCN1C(=O)CNC(=O)[C@@H]1CCC(=O)N1)[C@@H](C)CC)[C@@H](C)CC)[C@@H](C)O)[C@@H](C)CC)[C@@H](C)CC)[C@@H](C)O)C(=O)O | 7.69 | < 6.00
2 | CC[C@H](C)[C@H](NC(=O)[C@@H](NC(=O)[C@H](CC(=O)O)NC(=O)[C@H](CC(C)C)NC(=O)[C@H](CC(C)C)NC(=O)[C@H](CC(C)C)NC(=O)[C@H](CCCNC(=N)N)NC(=O)[C@H](CC(N)=O)NC(=O)[C@H](CC(N)=O)NC(=O)[C@H](C)NC(=O)[C@H](C)NC(=O)[C@H](CCC(N)=O)NC(=O)[C@H](CCC(N)=O)NC(=O)[C@H](CCCCN)NC(=O)[C@H](CCC(=O)O)NC(=O)[C@H](CCCCN)NC(=O)[C@H](CCC(=O)O)NC(=O)[C@H](CCC(N)=O)NC(=O)[C@H](CCCCN)NC(=O)[C@H](CCC(=O)O)NC(=O)[C@@H](NC(=O)[C@H](CCC(=O)O)NC(=O)[C@@H](NC(=O)[C@H](CCSC)NC(=O)[C@H](CCCCN)NC(=O)[C@H](CCCNC(=N)N)NC(=O)[C@H](CC(C)C)NC(=O)[C@H](CC(C)C)NC(=O)[C@H](CCC(N)=O)NC(=O)[C@H](Cc1ccc(O)cc1)NC(=O)[C@@H]1CCCN1C(=O)[C@H](CC(C)C)NC(=O)[C@H](CC(=O)O)NC(=O)[C@@H](NC(=O)[C@H](CO)NC(=O)[C@@H](NC(=O)[C@@H]1CCCN1C(=O)[C@@H]1CCCN1C(=O)CNC(=O)[C@@H]1CCC(=O)N1)[C@@H](C)CC)[C@@H](C)CC)[C@@H](C)CC)[C@@H](C)CC)[C@@H](C)O)C(=O)O | 8.07 | 6.39
3 | CC[C@H](C)[C@H](NC(=O)[C@@H](NC(=O)[C@H](CC(=O)O)NC(=O)[C@H](CC(C)C)NC(=O)[C@H](CC(C)C)NC(=O)[C@H](CC(C)C)NC(=O)[C@H](CCCNC(=N)N)NC(=O)[C@H](CC(N)=O)NC(=O)[C@H](CC(N)=O)NC(=O)[C@H](C)NC(=O)[C@H](C)NC(=O)[C@H](CCC(N)=O)NC(=O)[C@H](CCC(N)=O)NC(=O)[C@H](CCCCN)NC(=O)[C@H](CCC(=O)O)NC(=O)[C@H](CCCCN)NC(=O)[C@H](CCC(=O)O)NC(=O)[C@H](CCC(N)=O)NC(=O)[C@H](CCCCN)NC(=O)[C@H](CCC(=O)O)NC(=O)[C@@H](NC(=O)[C@H](CCC(=O)O)NC(=O)[C@@H](NC(=O)[C@H](CCSC)NC(=O)[C@H](CCCCN)NC(=O)[C@H](CCCNC(=N)N)NC(=O)[C@H](CC(C)C)NC(=O)[C@H](CC(C)C)NC(=O)[C@H](Cc1ccc(O)cc1)NC(=O)[C@H](CCC(N)=O)NC(=O)[C@@H]1CCCN1C(=O)[C@H](CC(C)C)NC(=O)[C@H](CC(=O)O)NC(=O)[C@@H](NC(=O)[C@H](CO)NC(=O)[C@@H](NC(=O)[C@@H]1CCCN1C(=O)[C@@H]1CCCN1C(=O)CNC(=O)[C@@H]1CCC(=O)N1)[C@@H](C)CC)[C@@H](C)CC)[C@@H](C)CC)[C@@H](C)CC)[C@@H](C)O)C(=O)O | 7.97 | 6.49
4 | CC[C@H](C)[C@H](NC(=O)[C@@H](NC(=O)[C@H](CC(=O)O)NC(=O)[C@H](CC(C)C)NC(=O)[C@H](CC(C)C)NC(=O)[C@H](CC(C)C)NC(=O)[C@H](CCCNC(=N)N)NC(=O)[C@H](CC(N)=O)NC(=O)[C@H](CC(N)=O)NC(=O)[C@H](C)NC(=O)[C@H](C)NC(=O)[C@H](CCC(N)=O)NC(=O)[C@H](CCC(N)=O)NC(=O)[C@H](CCCCN)NC(=O)[C@H](CCC(=O)O)NC(=O)[C@H](CCCCN)NC(=O)[C@H](CCC(=O)O)NC(=O)[C@H](CCC(N)=O)NC(=O)[C@H](CCCCN)NC(=O)[C@H](CCC(=O)O)NC(=O)[C@@H](NC(=O)[C@H](CCC(=O)O)NC(=O)[C@@H](NC(=O)[C@H](CCSC)NC(=O)[C@H](CCCCN)NC(=O)[C@H](CCCNC(=N)N)NC(=O)[C@H](CC(C)C)NC(=O)[C@H](CC(C)C)NC(=O)[C@H](Cc1ccc(O)cc1)NC(=O)[C@H](Cc1ccc(O)cc1)NC(=O)[C@@H]1CCCN1C(=O)[C@H](CC(C)C)NC(=O)[C@H](CC(=O)O)NC(=O)[C@@H](NC(=O)[C@H](CO)NC(=O)[C@@H](NC(=O)[C@@H]1CCCN1C(=O)[C@@H]1CCCN1C(=O)CNC(=O)[C@@H]1CCC(=O)N1)[C@@H](C)CC)[C@@H](C)CC)[C@@H](C)CC)[C@@H](C)CC)[C@@H](C)O)C(=O)O | 8.15 | 6.99
5 | CC[C@H](C)[C@H](NC(=O)[C@@H](NC(=O)[C@H](CC(=O)O)NC(=O)[C@H](CC(C)C)NC(=O)[C@H](CC(C)C)NC(=O)[C@H](CC(C)C)NC(=O)[C@H](CCCNC(=N)N)NC(=O)[C@H](CC(N)=O)NC(=O)[C@H](CC(N)=O)NC(=O)[C@H](C)NC(=O)[C@H](C)NC(=O)[C@H](CCC(N)=O)NC(=O)[C@H](CCC(N)=O)NC(=O)[C@H](CCCCN)NC(=O)[C@H](CCC(=O)O)NC(=O)[C@H](CCCCN)NC(=O)[C@H](CCC(=O)O)NC(=O)[C@H](CCC(N)=O)NC(=O)[C@H](CCCCN)NC(=O)[C@H](CCC(=O)O)NC(=O)[C@@H](NC(=O)[C@H](CCC(=O)O)NC(=O)[C@@H](NC(=O)[C@H](CCSC)NC(=O)[C@H](CCCCN)NC(=O)[C@H](CCCNC(=N)N)NC(=O)[C@H](CC(C)C)NC(=O)[C@H](CC(C)C)NC(=O)[C@H](CC(C)C)NC(=O)[C@H](CC(C)C)NC(=O)[C@@H]1CCCN1C(=O)[C@H](CC(C)C)NC(=O)[C@H](CC(=O)O)NC(=O)[C@@H](NC(=O)[C@H](CO)NC(=O)[C@@H](NC(=O)[C@@H]1CCCN1C(=O)[C@@H]1CCCN1C(=O)CNC(=O)[C@@H]1CCC(=O)N1)[C@@H](C)CC)[C@@H](C)CC)[C@@H](C)CC)[C@@H](C)CC)[C@@H](C)O)C(=O)O | 8.13 | 6.79
6 | CC[C@H](C)[C@H](NC(=O)[C@@H](NC(=O)[C@H](CC(=O)O)NC(=O)[C@H](CC(C)C)NC(=O)[C@H](CC(C)C)NC(=O)[C@H](CC(C)C)NC(=O)[C@H](CCCNC(=N)N)NC(=O)[C@H](CC(N)=O)NC(=O)[C@H](CC(N)=O)NC(=O)[C@H](C)NC(=O)[C@H](C)NC(=O)[C@H](CCC(N)=O)NC(=O)[C@H](CCC(N)=O)NC(=O)[C@H](CCCCN)NC(=O)[C@H](CCC(=O)O)NC(=O)[C@H](CCCCN)NC(=O)[C@H](CCC(=O)O)NC(=O)[C@H](CCC(N)=O)NC(=O)[C@H](CCCCN)NC(=O)[C@H](CCC(=O)O)NC(=O)[C@@H](NC(=O)[C@H](CCC(=O)O)NC(=O)[C@@H](NC(=O)[C@H](CCSC)NC(=O)[C@H](CCCCN)NC(=O)[C@H](CCCNC(=N)N)NC(=O)[C@H](CC(C)C)NC(=O)[C@H](CC(C)C)NC(=O)[C@H](CCC(N)=O)NC(=O)[C@H](Cc1ccccc1)NC(=O)[C@@H]1CCCN1C(=O)[C@H](CC(C)C)NC(=O)[C@H](CC(=O)O)NC(=O)[C@@H](NC(=O)[C@H](CO)NC(=O)[C@@H](NC(=O)[C@@H]1CCCN1C(=O)[C@@H]1CCCN1C(=O)CNC(=O)[C@@H]1CCC(=O)N1)[C@@H](C)CC)[C@@H](C)CC)[C@@H](C)CC)[C@@H](C)CC)[C@@H](C)O)C(=O)O | 8.74 | 6.95
7 | CC[C@H](C)[C@H](NC(=O)[C@@H](NC(=O)[C@H](CC(=O)O)NC(=O)[C@H](CC(C)C)NC(=O)[C@H](CC(C)C)NC(=O)[C@H](CC(C)C)NC(=O)[C@H](CCCNC(=N)N)NC(=O)[C@H](CC(N)=O)NC(=O)[C@H](CC(N)=O)NC(=O)[C@H](C)NC(=O)[C@H](C)NC(=O)[C@H](CCC(N)=O)NC(=O)[C@H](CCC(N)=O)NC(=O)[C@H](CCCCN)NC(=O)[C@H](CCC(=O)O)NC(=O)[C@H](CCCCN)NC(=O)[C@H](CCC(=O)O)NC(=O)[C@H](CCC(N)=O)NC(=O)[C@H](CCCCN)NC(=O)[C@H](CCC(=O)O)NC(=O)[C@@H](NC(=O)[C@H](CCC(=O)O)NC(=O)[C@@H](NC(=O)[C@H](CCSC)NC(=O)[C@H](CCCCN)NC(=O)[C@H](CCCNC(=N)N)NC(=O)[C@H](CC(C)C)NC(=O)[C@H](CC(C)C)NC(=O)[C@H](Cc1ccc(O)cc1)NC(=O)[C@H](CC(C)C)NC(=O)[C@@H]1CCCN1C(=O)[C@H](CC(C)C)NC(=O)[C@H](CC(=O)O)NC(=O)[C@@H](NC(=O)[C@H](CO)NC(=O)[C@@H](NC(=O)[C@@H]1CCCN1C(=O)[C@@H]1CCCN1C(=O)CNC(=O)[C@@H]1CCC(=O)N1)[C@@H](C)CC)[C@@H](C)CC)[C@@H](C)CC)[C@@H](C)CC)[C@@H](C)O)C(=O)O ([pGlu]GPPISIDLPLYLLRKMIEIEKQEKEKQQAANNRLLLDTI-OH) | 8.37 | 7.17
